These results are taken from patent US8536180B2, “Pyrimidine inhibitors of kinase activity” (AbbVie Inc., priority 2009, dated 2013).

A value given as a limit tells only on which side of the number the result lay.

T1 sequence (P08069 954-1367): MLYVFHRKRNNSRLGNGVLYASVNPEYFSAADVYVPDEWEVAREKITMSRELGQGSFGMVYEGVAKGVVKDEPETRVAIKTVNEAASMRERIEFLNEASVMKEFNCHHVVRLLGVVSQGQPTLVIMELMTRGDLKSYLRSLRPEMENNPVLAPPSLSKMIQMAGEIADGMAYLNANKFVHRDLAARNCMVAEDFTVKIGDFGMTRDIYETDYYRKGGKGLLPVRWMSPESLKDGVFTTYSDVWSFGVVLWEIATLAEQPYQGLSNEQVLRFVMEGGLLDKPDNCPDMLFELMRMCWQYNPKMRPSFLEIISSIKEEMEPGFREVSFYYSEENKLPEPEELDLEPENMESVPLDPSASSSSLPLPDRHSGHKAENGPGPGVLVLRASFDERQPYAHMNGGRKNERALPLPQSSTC

This assay concerns the target T1, C-terminal GST-tagged, recombinant, human IGF-1R, amino acids 954-1367 (Homo sapiens, UniProt P08069).
T1 construct: human IGF-1R, amino acids 954-1367 expressed by baculovirus in Sf21 cells; GST (C); purchased Cell Signaling Technology; host or cells: baculovirus in Sf21 cells
Kind of assay: IGF-1R homogenous time-resolved fluorescence (HTRF) in vitro kinase assay. The conditions noted are these: IGF-1R kinase, ATP 50 μM final, biotinylated peptide substrate 0.5 μM, 60 minutes at room temperature. It is filed as biochemical. The method, then:
IGF-1R kinase activity was assayed by a homogenous time-resolved fluorescence (HTRF) in vitro kinase assay (Mathis, G., HTRF(R) Technology. J Biomol Screen, 1999. 4(6): p. 309-314). Specifically, 10 μL C-terminal GST-tagged, recombinant, human IGF-1R, amino acids 954-1367 expressed by baculovirus in Sf21 cells (Cell Signaling Technology) was mixed with 10 μL inhibitor (various concentrations, 2% final DMSO) and 10 μL of ATP (50 μM final concentration) in reaction buffer (50 mM HEPES, pH 7.5, 10 mM MgCl2, 2 mM MnCl2, 0.1% BSA and 1 mM DTT, 40 μL final volume). The reaction was initiated by addition of 10 μL of biotinylated peptide substrate (Biotin-Ahx-[…], 0.5 μM final concentration) in a black 384-well plate (Packard). After 60 minutes incubation at room temperature, the reaction was quenched by addition of 60 μL stop/revelation buffer to give 30 mM EDTA, 1 μg/mL streptavidin-APC (Prozyme), 50 ng/mL anti-phosphotyrosine mAb PT66-K Europium Cryptate, 30 mM HEPES, pH 7.5, 120 mM KF, 0.005% Tween-20, 0.05% BSA). The quenched reaction was allowed to stand at room temperature for 1 hour and then read in a time-resolved fluorescence detector (Envision, Perkin Elmer) at 615 nm and 665 nm simultaneously. The ratio between the signal of 615 nm and 665 nm was used in the calculation of the IC50.
For orientation: In TR-FRET formats the signal depends on donor and acceptor labels being close together.
`COc1cc(NCC(=O)O)ccc1Nc1nccc(-c2c(-c3ccc4[nH]c(Cc5ccccc5)nc4c3)nc3ccccn23)n1` [Example 49, N-[4-({4-[2-(2-benzyl-1H-benzimidazol-5-yl)imidazo[1,2-a]pyridin-3-yl]pyrimidin-2-yl}amino)-3-methoxyphenyl]glycine]: the IC50 (usually the point on the concentration scale where inhibition reaches its midpoint) lay within 10 to 50 nM.
With `COc1ccc(CN(C)CCO)cc1Nc1nccc(-c2c(-c3ccc4nc(Cc5ccccc5)[nH]c4c3)nc3ccccn23)n1` [Example 50, 2-[[3-({4-[2-(2-benzyl-1H-benzimidazol-6-yl)imidazo[1,2-a]pyridin-3-yl]pyrimidin-2-yl}amino)-4-methoxybenzyl](methyl)amino]ethanol], the 50% inhibitory concentration (IC50) was 10 to 50 nM.
The same measure for `CN(C)CC(=O)Nc1cccc(Nc2nccc(-c3c(-c4ccc5nc(Cc6ccccc6)[nH]c5c4)nc4ccccn34)n2)c1` [Example 51, N^1-[3-({4-[2-(2-benzyl-1H-benzimidazol-6-yl)imidazo[1,2-a]pyridin-3-yl]pyrimidin-2-yl}amino)phenyl]-N^2,N^2-dimethylglycinamide]: less than 10 nM.
Take `COc1cc(N2CCC(N(C)C)CC2)ccc1Nc1nccc(-c2c(-c3ccc4nc(Cc5ccccc5C(F)(F)F)[nH]c4c3)nc3sccn23)n1` [Example 52, N-{4-[4-(dimethylamino)piperidin-1-yl]-2-methoxyphenyl}-4-(6-{2-[2-(trifluoromethyl)benzyl]-1H-benzimidazol-6-yl}imidazo[2,1-b][1,3]thiazol-5-yl)pyrimidin-2-amine]: the IC50 is less than 10 nM.
The same measure for `COc1ccc(NC(=O)CN(C)C)cc1Nc1nccc(-c2c(-c3ccc4nc(Cc5ccccc5)[nH]c4c3)nc3ccccn23)n1` [Example 53, N^1-[3-({4-[2-(2-benzyl-1H-benzimidazol-6-yl)imidazo[1,2-a]pyridin-3-yl]pyrimidin-2-yl}amino)-4-methoxyphenyl]-N^2,N^2-dimethylglycinamide]: less than 10 nM; for `COc1cc(N2CCC(N(C)C)CC2)ccc1Nc1nccc(-c2c(-c3ccc4nc(Cc5ccccc5Cl)[nH]c4c3)nc3sccn23)n1` [Example 54, 4-{6-[2-(2-chlorobenzyl)-1H-benzimidazol-6-yl]imidazo[2,1-b][1,3]thiazol-5-yl}-N-{4-[4-(dimethylamino)piperidin-1-yl]-2-methoxyphenyl}pyrimidin-2-amine]: less than 10 nM.
`COc1ccccc1Cc1nc2ccc(-c3nc4sccn4c3-c3ccnc(Nc4ccc(N5CCC(N(C)C)CC5)cc4OC)n3)cc2[nH]1` [Example 55, N-{4-[4-(dimethylamino)piperidin-1-yl]-2-methoxyphenyl}-4-{6-[2-(2-methoxybenzyl)-1H-benzimidazol-6-yl]imidazo[2,1-b][1,3]thiazol-5-yl}pyrimidin-2-amine]: the 50% inhibitory concentration (IC50) was less than 10 nM.
The same measure for `COc1cc(N2CCC(N(C)C)CC2)ccc1Nc1nccc(-c2c(-c3ccc4nc(Cc5ccccc5C)[nH]c4c3)nc3sccn23)n1` [Example 56, N-{4-[4-(dimethylamino)piperidin-1-yl]-2-methoxyphenyl}-4-{6-[2-(2-methylbenzyl)-1H-benzimidazol-6-yl]imidazo[2,1-b][1,3]thiazol-5-yl}pyrimidin-2-amine]: less than 10 nM.
Regarding `CN(C)Cc1ccc(Nc2nccc(-c3c(-c4ccc5nc(Cc6ccccc6)[nH]c5c4)nc4sccn34)n2)cc1` [Example 57, 4-[6-(2-benzyl-1H-benzimidazol-6-yl)imidazo[2,1-b][1,3]thiazol-5-yl]-N-{4-[(dimethylamino)methyl]phenyl}pyrimidin-2-amine], the half-inhibitory concentration (IC50) was less than 10 nM.
Turning to `CN(C)Cc1ccccc1Nc1nccc(-c2c(-c3ccc4nc(Cc5ccccc5)[nH]c4c3)nc3sccn23)n1` [Example 58, 4-[6-(2-benzyl-1H-benzimidazol-6-yl)imidazo[2,1-b][1,3]thiazol-5-yl]-N-{2-[(dimethylamino)methyl]phenyl}pyrimidin-2-amine], the concentration for half-maximal inhibition (IC50) is more than 500 nM.
For `O=C1CCCN1c1cccc(Nc2nccc(-c3c[nH]nc3-c3ccc4[nH]c(Cc5ccccc5Cl)nc4c3)n2)c1` [Example 59, 1-{3-[(4-{3-[2-(2-chlorobenzyl)-1H-benzimidazol-5-yl]-1H-pyrazol-4-yl}pyrimidin-2-yl)amino]phenyl}pyrrolidin-2-one], the half-inhibitory concentration (IC50) was 101 to 500 nM.
The same measure for `CCn1cc(-c2ccnc(Nc3cccc(CN(C)C)c3)n2)c(-c2ccc3[nH]c(Cc4ccccc4OC)nc3c2)n1` [Example 60, N-{3-[(dimethylamino)methyl]phenyl}-4-{1-ethyl-3-[2-(2-methoxybenzyl)-1H-benzimidazol-5-yl]-1H-pyrazol-4-yl}pyrimidin-2-amine]: 10 to 50 nM; for `CCn1cc(-c2ccnc(Nc3cccc(CN(C)C)c3)n2)c(-c2ccc3[nH]c(Cc4ccccc4Cl)nc3c2)n1` [Example 61, 4-{3-[2-(2-chlorobenzyl)-1H-benzimidazol-5-yl]-1-ethyl-1H-pyrazol-4-yl}-N-{3-[(dimethylamino)methyl]phenyl}pyrimidin-2-amine]: 10 to 50 nM.
As to `CCn1cc(-c2ccnc(Nc3cccc(CN(C)C)c3)n2)c(-c2ccc3[nH]c(Nc4ccccc4)nc3c2)n1` [Example 62, 5-{4-[2-({3-[(dimethylamino)methyl]phenyl}amino)pyrimidin-4-yl]-1-ethyl-1H-pyrazol-3-yl}-N-phenyl-1H-benzimidazol-2-amine], the IC50 lay in the range of 10 to 50 nM.
The same measure for `CCn1cc(-c2ccnc(Nc3cccc(CN(C)C)c3)n2)c(-c2ccc3[nH]c(Cc4ccccc4)nc3c2)n1` [Example 63, 4-[3-(2-benzyl-1H-benzimidazol-5-yl)-1-ethyl-1H-pyrazol-4-yl]-N-{3-[(dimethylamino)methyl]phenyl}pyrimidin-2-amine]: 10 to 50 nM; for `CCn1cc(-c2ccnc(Nc3ccccc3OC)n2)c(-c2ccc3[nH]c(Cc4ccccc4)nc3c2)n1` [Example 64, 4-[3-(2-benzyl-1H-benzimidazol-5-yl)-1-ethyl-1H-pyrazol-4-yl]-N-(2-methoxyphenyl)pyrimidin-2-amine]: 101 to 500 nM; for `CCn1cc(-c2ccnc(Nc3ccccc3OC)n2)c(-c2ccc3[nH]c(Cc4ccccc4OC)nc3c2)n1` [Example 65, 4-{1-ethyl-3-[2-(2-methoxybenzyl)-1H-benzimidazol-5-yl]-1H-pyrazol-4-yl}-N-(2-methoxyphenyl)pyrimidin-2-amine]: 101 to 500 nM.
The same measure for `CCn1cc(-c2ccnc(Nc3ccc(N4CCC(N(C)C)CC4)cc3OC)n2)c(-c2ccc3[nH]c(Cc4ccccc4)nc3c2)n1` [Example 66, 4-[3-(2-benzyl-1H-benzimidazol-5-yl)-1-ethyl-1H-pyrazol-4-yl]-N-{-4-[4-(dimethylamino)piperidin-1-yl]-2-methoxyphenyl}pyrimidin-2-amine]: 10 to 50 nM.
The same measure for `CCn1cc(-c2ccnc(Nc3ccc(N4CCC(N(C)C)CC4)cc3OC)n2)c(-c2ccc3[nH]c(Cc4ccccc4Cl)nc3c2)n1` [Example 67, 4-{3-[2-(2-chlorobenzyl)-1H-benzimidazol-5-yl]-1-ethyl-1H-pyrazol-4-yl}-N-{4-[4-(dimethylamino)piperidin-1-yl]-2-methoxyphenyl}pyrimidin-2-amine]: 51 to 100 nM.
With `CCn1cc(-c2ccnc(Nc3ccc(N4CCC(N(C)C)CC4)cc3OC)n2)c(-c2ccc3[nH]c(Cc4ccccc4OC)nc3c2)n1` [Example 68, N-{4-[4-(dimethylamino)piperidin-1-yl]-2-methoxyphenyl}-4-{1-ethyl-3-[2-(2-methoxybenzyl)-1H-benzimidazol-5-yl]-1H-pyrazol-4-yl}pyrimidin-2-amine], the IC50 is 51 to 100 nM.
Take `CCn1cc(-c2ccnc(Nc3ccc(N4CCC(N(C)C)CC4)cc3OC)n2)c(-c2ccc3[nH]c(-c4ccccc4)nc3c2)n1` [Example 69, N-{4-[4-(dimethylamino)piperidin-1-yl]-2-methoxyphenyl}-4-[1-ethyl-3-(2-phenyl-1H-benzimidazol-5-yl)-1H-pyrazol-4-yl]pyrimidin-2-amine]: the half-maximal inhibitory concentration (IC50) fell in the range of 101 to 500 nM.
